Laboratory results as given in patent US20080207614A1, “QUINAZOLINE DERIVATIVES FOR THE TREATMENT AND PREVENTION OF DIABETES AND OBESITY” (SK CHEMICALS CO., LTD., priority 2004, published 2008).

What was measured:
C2C12 muscle cells = assay: Analysis of glucose absorption (2-deoxyglucose) in differentiated C2C12 muscle cells; assay type: cell-based; details: test materials 10 μM, times relative to control group
Summary of the method: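 Differentiated C2C12 myotubes (6 days in 1% serum) held 3 h in KRB with 5 mM glucose, then given test material at 10 μM. After 30 min, 0.2 μCi 2-deoxyglucose added for 20 min; uptake measured by radioactive counting of NaOH lysates.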

AMPK = assay: Measurement of AMPK activity by Western blot in C2C12 cells; assay type: cell-based; set-up: key to AMPK activity (degree of phosphorylation of serine-79 and threonine-172): fold increase in threonine-172 phosphorylation; AMPK activity (degree of phosphorylation of serine-79): unit not given here; details: 10 μM for 50 minutes; for AMPK activity (degree of phosphorylation of serine-79 and threonine-172): no superscript: Western blot of serine-79 and threonine-172 phosphorylation; for AMPK activity (class: degree of phosphorylation of threonine-172): strong/mild/weak; for AMPK activity (degree of phosphorylation of serine-79): footnote a: Western blot of serine-79 phosphorylation
Summary of the method: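 Differentiated C2C12 cells were exposed to test material at 10 μM for 50 minutes, then lysed. AMPK activity was taken from Western blots of Thr-172 phosphorylation and acetyl CoA carboxylase Ser-79 phosphorylation, with ERK as loading reference. Thr-172 rise was graded strong (≥3-fold), mild (1-3-fold) or weak (<1-fold).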

Row | SMILES | Glucose absorption (C2C12 muscle cells) | AMPK activity (degree of phosphorylation of serine-79 and threonine-172) (AMPK) | AMPK activity (class: degree of phosphorylation of threonine-172) (AMPK) | AMPK activity (degree of phosphorylation of serine-79) (AMPK)
1 | COc1cc(CNc2nc(C3CC3)nc3ccccc23)cc(OC)c1 [Compound 387, (2-Cyclopropylquinazolino-4-yl)-(3,5-dimethoxybenzyl)-amine] | 1.2 | 1.5 | – | –
2 | COc1ccc(OC)c(CNc2ncnc3ccccc23)c1 [Compound 413, (2,5-Dimethoxybenzyl)-quinazolino-4-ylamine] | 1.2 | 1.7 | – | –
3 | COc1ccc(CNc2ncnc3ccccc23)cc1 [Compound 406, (4-Methoxybenzyl)-quinazolino-4-ylamine] | 2.1 | 1.5 | – | –
4 | COc1cc(CNc2nc(-c3ccccc3)nc3ccccc23)ccc1O [Compound 113, 2-Methoxy-4-[(2-phenylquinazolino-4-ylamino)-methyl]-phenol] | 2.1 | 2.1 | strong (“strong” means that the degree of phosphorylation of threonine-172 increased by 3 times or more) | –
5 | c1ccc2c(NCc3ccc4c(c3)OCO4)nc(N3CCOCC3)nc2c1 [Compound 309, Benzo[1,3]dioxol-5-ylmethyl-(2-morpholino-4-ylquinazolino-4-yl)-amine] | 0.8 | 1.3 | – | –
6 | CCCc1nc(NCc2ccc(OC)c(OC)c2)c2ccccc2n1 [Compound 399, (3,4-Dimethoxybenzyl)-(2-propylquinazolino-4-yl)-amine] | 1.2 | 4.9 | – | –
7 | CCSc1nc(NC(C)CC)c2ccccc2n1 (stereo not drawn) [Compound 20, sec-Butyl-(2-ethylsulfanylquinazolino-4-yl)-amine] | 1.9 | – | weak (“weak” means that the degree of phosphorylation of threonine-172 increased by less than 1 time) | –
8 | COc1ccc(OC)c(CNc2nc(N3CCN(C)CC3)nc3ccccc23)c1 [Compound 298, (2,5-Dimethoxybenzyl)-[2-(4-methylpiperazino-1-yl)-quinazolino-4-yl]-amine] | 0.6 | 0.7 | – | –
9 | Clc1ccc(CNc2nc(-c3ccccc3)nc3ccccc23)c(Cl)c1 [Compound 108, (2,4-Dichlorobenzyl)-(2-phenylquinazolino-4-yl)-amine] | 2.2 | 2.2 | strong (“strong” means that the degree of phosphorylation of threonine-172 increased by 3 times or more) | –
10 | CCCc1nc(NCc2ccc3c(c2)OCO3)c2ccccc2n1 [Compound 396, Benzo[1,3]dioxol-5-ylmethyl-(2-propylquinazolino-4-yl)-amine] | 1.3 | 7.3 | – | –
11 | COc1cc(OC)c(CNc2nc(C(C)c3ccccc3)nc3ccccc23)c(OC)c1 (stereo not drawn) [Compound 381, [2-(1-Phenylethyl)-quinazolino-4-yl]-(2,4,6-trimethoxybenzyl)-amine] | 1.2 | 4.0 | – | –
12 | ClC(Cl)(Cl)c1nc(NCCCCc2ccccc2)c2ccccc2n1 [Compound 6, (4-Phenylbutyl)-(2-trichloromethylquinazolino-4-yl)-amine] | 1.4 | – | – | 4.7^a
13 | COc1ccccc1CNc1nc(N2CCCC2)nc2ccccc12 [Compound 275, (2-Methoxybenzyl)-(2-pyrrolidino-1-ylquinazolino-4-yl)-amine] | 0.8 | 2.1 | – | –
14 | CC1CCCC(Nc2nc(-c3ccccc3)nc3ccccc23)C1C (stereo not drawn) [Compound 143, (2,3-Dimethylcyclohexyl)-(2-phenylquinazolino-4-yl)-amine] | 2.3 | 2.4 | strong (“strong” means that the degree of phosphorylation of threonine-172 increased by 3 times or more) | –
15 | COc1ccc(COc2nc(-c3ccccc3)nc3ccccc23)c(OC)c1 [Compound 273, 4-(2,4-Dimethoxybenzyloxy)-2-phenylquinazoline] | 0.7 | 1.5 | – | –
16 | CCCc1nc(NCc2cccc(OC)c2OC)c2ccccc2n1 [Compound 397, (2,3-Dimethoxybenzyl)-(2-propylquinazolino-4-yl)-amine] | 1.3 | 6.5 | – | –
17 | c1ccc(-c2nc(NCc3cccnc3)c3ccccc3n2)cc1 [Compound 111, (2-Phenylquinazolino-4-yl)-pyridino-3-ylmethylamine] | 2.4 | 1.8 | strong (“strong” means that the degree of phosphorylation of threonine-172 increased by 3 times or more) | –
18 | c1ccc(-c2nc(NCC(c3ccccc3)c3ccccc3)c3ccccc3n2)cc1 [Compound 133, (2,2-Diphenylethyl)-(2-phenylquinazolino-4-yl)-amine] | 2.1 | 1.3 | mild (“mild” means that the degree of phosphorylation of threonine-172 increased by 1 to 3 times) | –
19 | COc1ccc(CSc2nc(-c3ccccc3)nc3ccccc23)c(OC)c1 [Compound 274, 4-(2,4-Dimethoxybenzylsulfanyl)-2-phenylquinazoline] | 0.8 | 1.9 | – | –
20 | Clc1cccc(CNc2nc(-c3ccccc3)nc3ccccc23)c1Cl [Compound 115, (2,3-Dichlorobenzyl)-(2-phenylquinazolino-4-yl)-amine] | 2.3 | 2.3 | strong (“strong” means that the degree of phosphorylation of threonine-172 increased by 3 times or more) | –
21 | CCCNc1nc(C(Cl)(Cl)Cl)nc2ccccc12 [Compound 7, Propyl-(2-trichloromethylquinazolino-4-yl)-amine] | 1.5 | – | – | 4.4^a
22 | FCCNc1nc(-c2ccccc2)nc2ccccc12 [Compound 114, (2-Fluoro-ethyl)-(2-phenylquinazolino-4-yl)-amine] | 2.2 | 2.0 | strong (“strong” means that the degree of phosphorylation of threonine-172 increased by 3 times or more) | –
